Experimental data taken from paper PMC6222781, “Structural Optimization of Foldamer-Dendrimer Conjugates as Multivalent Agents against the Toxic Effects of Amyloid Beta Oligomers” (Molecules : A Journal of Synthetic Chemistry and Natural …, 2018).

Columns and labels:
[1] = molecular target: T1, Aβ oligomers (Homo sapiens, UniProt P05067); assay: Sandwich ELISA binding of biotin-tagged conjugates to Aβ
T1 construct: Ser^26 depsipeptide iso-Aβ (1–42) was used; made in house; host or cells: chemical peptide synthesis (no expression host)
T1 sequence (P05067 672-713 limits assumed): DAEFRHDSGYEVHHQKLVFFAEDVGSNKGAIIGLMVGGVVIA
Text: To study the role of certain structure elements in the binding affinity, a set of new foldamer sequences were designed (Figure 2) and ligated to lysine-dendron scaffolds having a focal symmetry. This template with biotin affinity tag can be easily synthesized by solid phase peptide synthesis and immobilized on a streptavidin coated support such as the surface of the ELISA plate. Structural changes included fine-tuning the side-chain properties (2b–2d), changing the position of ionic residues (2e) and introducing bulky bicyclic side-chains (2f–2i).
The binding affinities of 2b–2i to Aβ oligomers were tested in ITC experiments. In such cases where the fitting failed due to low heat response or poor solubility, sandwich ELISA experiments were performed to enable the comparison of all conjugates (see Supporting Information for details).
The apparent dissociation constants for the complete set of new conjugates were calculated individually from the data of the ELISA experiments as well. Comparing the KD values of 2f–2i in this case, the replacement of ACHC to ABHC had only a minor effect on the Aβ binding. The cyclic β-amino acid ACHC not only provides the helical conformation of such a short foldamer but also protects the ionic residues from solvent upon binding due to its hydrophobicity.

[2] = molecular target: T1, Aβ oligomers; assay: Isothermal titration calorimetry (ITC) binding to Aβ oligomers; conditions: PBS pH 7.4, 285 K, Aβ 100 µM in cell, ligand 250 µM in syringe, two independent site model
Procedure: The binding affinities of 2b–2i to Aβ oligomers were tested in ITC experiments.
In this work, Ser^26 depsipeptide iso-Aβ (1–42) was used, which was synthesized and purified as described previously. The lyophilized iso-Aβ (1–42) was dissolved in MilliQ water to a concentration of 1 mg mL^−1, sonicated for 3 min and the pH was set to 7.0 to initiate an O to N acyl migration, whereby the native sequence can be readily formed. The sample was incubated at room temperature for 10 min. Then the pH was set to 11 and the sample was kept at room temperature for additional 2 h. After the incubation, the Aβ stock solution was aliquoted and stored at −20 °C until use. To obtain Aβ oligomers, the 1 mg mL^−1 aliquot was diluted to a final concentration of 50 μM with 26.67 mM PBS and the pH was set to 7.4 with 1 M HCl. The sample was incubated at 37 °C for 3 h.
Isothermal calorimetric titrations were performed with a Microcal VP-ITC microcalorimeter in pH 7.4 PBS buffer solution. In individual titrations, 10 µL portions of the ligand containing solution were repeatedly injected from the computer-controlled 300-µL microsyringe at intervals of 300 s into the Aβ oligomer solution prepared in the same buffer as the ligand. All measurements were carried out at 285 K. The Aβ concentration in the cell was 100 µM and the total ligand concentration was 250 µM in the syringe and the titration was stopped when the precipitation of the Aβ aggregates became excessive. Control experiments were performed by injecting the ligand into a cell containing buffer with no target, and the heats of dilution were subtracted from those measured in the presence of Aβ. The experimental data were fitted to the two independent site binding models by using a nonlinear least-squares procedure, with ΔHb, ΔHb’, Kd, Kd’ ([…]), n and n’ (number of binding sites for monomer), as adjustable parameters.

`N=C(N)NCCC[C@H](NC(=O)[C@H]1CCCC[C@@H]1N)C(=O)N[C@H]1CCCC[C@@H]1C(=O)N[C@H]1CCCC[C@@H]1C(=O)N[C@@H](CC(=O)O)C(=O)N[C@H]1CCCC[C@@H]1C(=O)NCC(=O)NCC(=O)N[C@@H](CSC1CC(=O)N(CCC(=O)NCCCC[C@H](NC(=O)CCN2C(=O)CC(SC[C@H](NC(=O)CNC(=O)CNC(=O)[C@H]3CCCC[C@@H]3NC(=O)[C@H](CC(=O)O)NC(=O)[C@H]3CCCC[C@@H]3NC(=O)[C@H]3CCCC[C@@H]3NC(=O)[C@H](CCCNC(=N)N)NC(=O)[C@H]3CCCC[C@@H]3N)C(N)=O)C2=O)C(=O)NCCCC[C@H](NC(=O)[C@H](CCCCNC(=O)CCN2C(=O)CC(SC[C@H](NC(=O)CNC(=O)CNC(=O)[C@H]3CCCC[C@@H]3NC(=O)[C@H](CC(=O)O)NC(=O)[C@H]3CCCC[C@@H]3NC(=O)[C@H]3CCCC[C@@H]3NC(=O)[C@H](CCCNC(=N)N)NC(=O)[C@H]3CCCC[C@@H]3N)C(N)=O)C2=O)NC(=O)CCN2C(=O)CC(SC[C@H](NC(=O)CNC(=O)CNC(=O)[C@H]3CCCC[C@@H]3NC(=O)[C@H](CC(=O)O)NC(=O)[C@H]3CCCC[C@@H]3NC(=O)[C@H]3CCCC[C@@H]3NC(=O)[C@H](CCCNC(=N)N)NC(=O)[C@H]3CCCC[C@@H]3N)C(N)=O)C2=O)C(=O)N[C@@H](CCCCNC(=O)CCCC[C@@H]2SC[C@@H]3NC(=O)N[C@@H]32)C(N)=O)C1=O)C(N)=O` (some centres unmarked) [Compound 2d] showed a Kd [1] of 7.7 ± 3.06 nM.

In the case of `N=C(N)NCCC[C@@H](CC(=O)N[C@H]1CCCC[C@@H]1C(=O)N[C@@H](CC(=O)O)CC(=O)N[C@H]1CCCC[C@@H]1C(=O)NCC(=O)NCC(=O)N[C@@H](CSC1CC(=O)N(CCC(=O)NCCCC[C@H](NC(=O)CCN2C(=O)CC(SC[C@H](NC(=O)CNC(=O)CNC(=O)[C@H]3CCCC[C@@H]3NC(=O)C[C@H](CC(=O)O)NC(=O)[C@H]3CCCC[C@@H]3NC(=O)C[C@H](CCCNC(=N)N)NC(=O)[C@H]3CCCC[C@@H]3NC(=O)[C@H]3CCCC[C@@H]3N)C(N)=O)C2=O)C(=O)NCCCC[C@H](NC(=O)[C@H](CCCCNC(=O)CCN2C(=O)CC(SC[C@H](NC(=O)CNC(=O)CNC(=O)[C@H]3CCCC[C@@H]3NC(=O)C[C@H](CC(=O)O)NC(=O)[C@H]3CCCC[C@@H]3NC(=O)C[C@H](CCCNC(=N)N)NC(=O)[C@H]3CCCC[C@@H]3NC(=O)[C@H]3CCCC[C@@H]3N)C(N)=O)C2=O)NC(=O)CCN2C(=O)CC(SC[C@H](NC(=O)CNC(=O)CNC(=O)[C@H]3CCCC[C@@H]3NC(=O)C[C@H](CC(=O)O)NC(=O)[C@H]3CCCC[C@@H]3NC(=O)C[C@H](CCCNC(=N)N)NC(=O)[C@H]3CCCC[C@@H]3NC(=O)[C@H]3CCCC[C@@H]3N)C(N)=O)C2=O)C(=O)N[C@@H](CCCCNC(=O)CCCC[C@@H]2SC[C@@H]3NC(=O)N[C@@H]32)C(N)=O)C1=O)C(N)=O)NC(=O)[C@H]1CCCC[C@@H]1NC(=O)[C@H]1CCCC[C@@H]1N` (some centres unmarked) [Compound 2e], the Kd [1] is reported as 2.71 ± 0.21 nM.

`N=C(N)NCCC[C@@H](CC(=O)N[C@H]1CCCC[C@@H]1C(=O)N[C@H]1CCCC[C@@H]1C(=O)N[C@@H](CC(=O)O)CC(=O)N[C@H]1CCCC[C@@H]1C(=O)NCC(=O)NCC(=O)N[C@@H](CSC1CC(=O)N(CCC(=O)NCCCCC(=O)NCCN(CCNC(=O)CCCCNC(=O)CCN2C(=O)CC(SC[C@H](NC(=O)CNC(=O)CNC(=O)[C@H]3CCCC[C@@H]3NC(=O)C[C@H](CC(=O)O)NC(=O)[C@H]3CCCC[C@@H]3NC(=O)[C@H]3CCCC[C@@H]3NC(=O)C[C@H](CCCNC(=N)N)NC(=O)[C@H]3CCCC[C@@H]3N)C(N)=O)C2=O)CCNC(=O)CCCCNC(=O)CCN2C(=O)CC(SC[C@H](NC(=O)CNC(=O)CNC(=O)[C@H]3CCCC[C@@H]3NC(=O)C[C@H](CC(=O)O)NC(=O)[C@H]3CCCC[C@@H]3NC(=O)[C@H]3CCCC[C@@H]3NC(=O)C[C@H](CCCNC(=N)N)NC(=O)[C@H]3CCCC[C@@H]3N)C(N)=O)C2=O)C1=O)C(N)=O)NC(=O)[C@H]1CCCC[C@@H]1N` (some centres unmarked) [Compound 4] gave a Kd ([2]; Table 2, first binding stage, read-out: KD, first binding stage) of 18.5 ± 13.9 nM and a Kd ([2]; Table 2, second binding stage, read-out: KD, second binding stage) of 155 ± 131 nM.

In the case of `CC1(C)[C@H]2C[C@H](NC(=O)C[C@H](CCCNC(=N)N)NC(=O)[C@H]3CCCC[C@@H]3N)[C@@H](C(=O)N[C@H]3CCCC[C@@H]3C(=O)N[C@@H](CC(=O)O)CC(=O)N[C@H]3CCCC[C@@H]3C(=O)NCC(=O)NCC(=O)N[C@@H](CSC3CC(=O)N(CCC(=O)NCCCC[C@H](NC(=O)CCN4C(=O)CC(SC[C@H](NC(=O)CNC(=O)CNC(=O)[C@H]5CCCC[C@@H]5NC(=O)C[C@H](CC(=O)O)NC(=O)[C@H]5CCCC[C@@H]5NC(=O)[C@@H]5[C@@H](NC(=O)C[C@H](CCCNC(=N)N)NC(=O)[C@H]6CCCC[C@@H]6N)C[C@H]6C[C@@H]5C6(C)C)C(N)=O)C4=O)C(=O)NCCCC[C@H](NC(=O)[C@H](CCCCNC(=O)CCN4C(=O)CC(SC[C@H](NC(=O)CNC(=O)CNC(=O)[C@H]5CCCC[C@@H]5NC(=O)C[C@H](CC(=O)O)NC(=O)[C@H]5CCCC[C@@H]5NC(=O)[C@@H]5[C@@H](NC(=O)C[C@H](CCCNC(=N)N)NC(=O)[C@H]6CCCC[C@@H]6N)C[C@H]6C[C@@H]5C6(C)C)C(N)=O)C4=O)NC(=O)CCN4C(=O)CC(SC[C@H](NC(=O)CNC(=O)CNC(=O)[C@H]5CCCC[C@@H]5NC(=O)C[C@H](CC(=O)O)NC(=O)[C@H]5CCCC[C@@H]5NC(=O)[C@@H]5[C@@H](NC(=O)C[C@H](CCCNC(=N)N)NC(=O)[C@H]6CCCC[C@@H]6N)C[C@H]6C[C@@H]5C6(C)C)C(N)=O)C4=O)C(=O)N[C@@H](CCCCNC(=O)CCCC[C@@H]4SC[C@@H]5NC(=O)N[C@@H]54)C(N)=O)C3=O)C(N)=O)[C@@H]1C2` (some centres unmarked) [Compound 2g], the Kd ([2]; KD ITC, first binding stage, Table 1) is reported as 34.1 ± 10 nM and the Kd ([2]; KD ITC, second binding stage, Table 1) is reported as 652 ± 158 nM.

`N=C(N)NCCC[C@@H](CC(=O)N[C@H]1CCCC[C@@H]1C(=O)N[C@H]1CCCC[C@@H]1C(=O)N[C@@H](CC(=O)O)CC(=O)N[C@H]1CCCC[C@@H]1C(=O)NCC(=O)NCC(=O)N[C@@H](CSC1CC(=O)N(CCC(=O)NCCNC(=O)CCN(CCC(=O)NCCNC(=O)CCN2C(=O)CC(SC[C@H](NC(=O)CNC(=O)CNC(=O)[C@H]3CCCC[C@@H]3NC(=O)C[C@H](CC(=O)O)NC(=O)[C@H]3CCCC[C@@H]3NC(=O)[C@H]3CCCC[C@@H]3NC(=O)C[C@H](CCCNC(=N)N)NC(=O)[C@H]3CCCC[C@@H]3N)C(N)=O)C2=O)CCN(CCC(=O)NCCNC(=O)CCN2C(=O)CC(SC[C@H](NC(=O)CNC(=O)CNC(=O)[C@H]3CCCC[C@@H]3NC(=O)C[C@H](CC(=O)O)NC(=O)[C@H]3CCCC[C@@H]3NC(=O)[C@H]3CCCC[C@@H]3NC(=O)C[C@H](CCCNC(=N)N)NC(=O)[C@H]3CCCC[C@@H]3N)C(N)=O)C2=O)CCC(=O)NCCNC(=O)CCN2C(=O)CC(SC[C@H](NC(=O)CNC(=O)CNC(=O)[C@H]3CCCC[C@@H]3NC(=O)C[C@H](CC(=O)O)NC(=O)[C@H]3CCCC[C@@H]3NC(=O)[C@H]3CCCC[C@@H]3NC(=O)C[C@H](CCCNC(=N)N)NC(=O)[C@H]3CCCC[C@@H]3N)C(N)=O)C2=O)C1=O)C(N)=O)NC(=O)[C@H]1CCCC[C@@H]1N` (some centres unmarked) [Compound 5] gave a Kd ([2]; KD, first binding stage, Table 2) of 6.9 ± 1.4 nM and a Kd ([2]; KD, second binding stage, Table 2) of 281 ± 38.7 nM.
